ChEMBL document CHEMBL1146327, “Inhibitors of the FEZ-1 metallo-beta-lactamase” (Bioorg Med Chem Lett, 2007)
Active and inactive are the calls of the source. No cut-off for these calls is given here.

What was measured:
[1] = target: Metallo-beta-lactamase type 2 (Pseudomonas aeruginosa) (UniProt Q7WYA8); assay: Inhibition of metallo-beta-lactamases IMP1 assessed as residual activity at 100 uM
[2] = Inhibition of metallo-beta-lactamases L1 assessed as residual activity at 100 uM
Fluoribacter gormanii [3] = assay: Inhibition of metallo-beta-lactamases FEZ1 assessed as residual activity at 100 uM
Bacillus cereus [4] = assay: Inhibition of metallo-beta-lactamases Bc2 assessed as residual activity at 100 uM
[5] = target: Metallo-beta-lactamase type 2 (Aeromonas hydrophila) (UniProt P26918); assay: Inhibition of metallo-beta-lactamases CphA assessed as residual activity at 100 uM
Sequence of Metallo-beta-lactamase type 2 (Aeromonas hydrophila) (P26918 whole entry): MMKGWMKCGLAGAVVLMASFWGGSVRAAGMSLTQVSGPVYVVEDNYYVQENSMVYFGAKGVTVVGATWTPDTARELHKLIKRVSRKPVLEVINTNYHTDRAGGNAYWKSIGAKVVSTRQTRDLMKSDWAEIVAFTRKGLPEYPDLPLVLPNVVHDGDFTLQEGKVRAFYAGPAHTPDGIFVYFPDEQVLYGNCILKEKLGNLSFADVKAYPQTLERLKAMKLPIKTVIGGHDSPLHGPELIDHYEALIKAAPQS

Fluoribacter gormanii [6] = assay: (§1) Inhibition of metallo-beta-lactamases FEZ1; set-up: concentration or dose not given beside the values; conditions: concentration not given here
Bacillus cereus [7] = assay: Inhibition of metallo-beta-lactamases Bc2; conditions: for inhibition: concentration not given here
[8] = target: Metallo-beta-lactamase type 2 (Pseudomonas aeruginosa) (UniProt Q7WYA8); assay: Inhibition of metallo-beta-lactamases IMP1; conditions: for inhibition: concentration not given here
[9] = target: Metallo-beta-lactamase type 2 (Aeromonas hydrophila) (UniProt P26918); assay: Inhibition of metallo-beta-lactamases CphA; conditions: for inhibition: concentration not given here
[10] = Inhibition of metallo-beta-lactamases L1; conditions: for inhibition: concentration not given here
[11] = as §1; set-up: species or system Fluoribacter gormanii

Sequence of Metallo-beta-lactamase type 2 (Pseudomonas aeruginosa) (Q7WYA8 whole entry): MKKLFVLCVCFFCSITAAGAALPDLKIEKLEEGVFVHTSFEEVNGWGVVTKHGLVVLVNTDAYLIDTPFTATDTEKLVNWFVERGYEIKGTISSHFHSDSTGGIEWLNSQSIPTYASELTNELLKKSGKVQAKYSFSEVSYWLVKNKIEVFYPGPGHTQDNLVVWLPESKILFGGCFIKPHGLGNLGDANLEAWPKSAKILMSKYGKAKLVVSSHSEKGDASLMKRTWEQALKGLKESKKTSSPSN

Work on `O=C(NO)c1cc(O)cc(C(=O)c2ccc(O)cc2)c1` yielded an Activity [1] of 83%, an Activity [2] of 102% and an Activity (Fluoribacter gormanii [3]) of 15%. The Activity (Bacillus cereus [4]) was 91% and the Activity [5] was 84%.

With `CCN(CC)C(=O)c1cc(O)cc(C(=O)NO)c1` the Activity [1] was 85%, the Activity [2] was 93% and the inhibition (Fluoribacter gormanii [6]) was 34%. For the same compound, the Activity (Fluoribacter gormanii [3]) was 66%, the Activity (Bacillus cereus [4]) was 101% and the Activity [5] was 90%.

In the case of `O=C(NO)c1ccc(O)cc1`, the inhibition (Fluoribacter gormanii [6]) is reported as 53%.

In the case of `O=C(O)CCC(=O)NO`, the inhibition (Bacillus cereus [7]) is reported as less than 10%, the inhibition [8] is reported as less than 10% and the inhibition (Fluoribacter gormanii [6]) is reported as less than 10%. The inhibition [9] was less than 10% and the inhibition [10] was less than 10%.

In the case of `O=C(O)c1cccc(C(=O)NO)c1`, the inhibition (Bacillus cereus [7]) is reported as less than 10%, the inhibition [8] is reported as less than 10% and the inhibition (Fluoribacter gormanii [6]) is reported as less than 10%. For the same compound, the inhibition [9] was less than 10% and the inhibition [10] was less than 10%.

Work on `O=C(NO)c1cc(O)cc(C(=O)Nc2ccccc2)c1` yielded an Activity [1] of 92%, an Activity [2] of 103% and an inhibition (Fluoribacter gormanii [6]) of 58%. It also gave an Activity (Fluoribacter gormanii [3]) of 42%, an Activity (Bacillus cereus [4]) of 82% and an Activity [5] of 90%.

With `O=C(O)c1cc(O)cc(C(=O)c2ccc(O)cc2)c1` the Activity [1] was 100%, the Activity [2] was 107% and the Activity (Fluoribacter gormanii [3]) was 67%. For the same compound, the Activity (Bacillus cereus [4]) was 86% and the Activity [5] was 83%.

`O=C(NO)c1cc(O)cc(C(=O)N2CCCC2)c1` showed an Activity [1] of 85%, an Activity [2] of 92% and an inhibition (Fluoribacter gormanii [6]) of 36%. It also gave an Activity (Fluoribacter gormanii [3]) of 64%, an Activity (Bacillus cereus [4]) of 100% and an Activity [5] of 86%.

In the case of `O=C(NO)c1cc(O)cc(C(=O)NCc2ccccc2)c1`, the Activity [1] is reported as 81%, the Activity [2] is reported as 95% and the inhibition (Fluoribacter gormanii [6]) is reported as 54%. The Activity (Fluoribacter gormanii [3]) was 46%, the Activity (Bacillus cereus [4]) was 103% and the Activity [5] was 81%.

Compound `CNC(=O)c1cc(O)cc(C(=O)NO)c1` has an Activity [1] of 93%, an Activity [2] of 96% and an inhibition (Fluoribacter gormanii [6]) of 53%. The Activity (Fluoribacter gormanii [3]) was 47%, the Activity (Bacillus cereus [4]) was 103% and the Activity [5] was 92%.

With `O=C(NO)c1ccccc1O` the inhibition (Fluoribacter gormanii [6]) was 45%.

For `O=C(NO)c1ccccc1`, the Activity (Bacillus cereus [7]) was “inactive”, the Activity [8] was “inactive” and the inhibition (Fluoribacter gormanii [6]) was 55%. For the same compound, the Activity [9] was “inactive” and the Activity [10] was “inactive”.

For `O=C(NO)c1cccc(O)c1`, the Ki [11] was 17.9 µM and the inhibition (Fluoribacter gormanii [6]) was 64%.

`O=C(O)c1cc(O)cc(C(=O)NO)c1` showed an Activity [1] of 67%, an Activity [2] of 97% and an Activity (Fluoribacter gormanii [3]) of 92%. It also gave an Activity (Bacillus cereus [4]) of 93% and an Activity [5] of 79%.

With `O=C(NO)c1cc(O)cc(O)c1` the Ki [11] was 13.3 µM.
